Test results as given in PubChem BioAssay (NCI).
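In this assay, cells in 96-well plates receive the compound at five concentrations for 48 hours. Endpoints are linearly interpolated between the surrounding concentrations. TGI: total growth inhibition.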

Tests used:
Assay in all cases: growth of human tumour cells (NCI), 48 h
786-0 renal = test system: 786-0 renal
A498 renal = test system: A498 renal
A549 NSCLC = test system: A549 NSCLC
ACHN renal = test system: ACHN renal
BT-549 breast = test system: BT-549 breast
CAKI-1 renal = test system: CAKI-1 renal
COLO 205 colon = test system: COLO 205 colon
DU-145 prostate = test system: DU-145 prostate
EKVX NSCLC = test system: EKVX NSCLC
HCC-2998 colon = test system: HCC-2998 colon
HCT-116 colon = test system: HCT-116 colon
HCT-15 colon = test system: HCT-15 colon
HL-60(TB) leukemia = test system: HL-60(TB) leukemia
HOP-62 NSCLC = test system: HOP-62 NSCLC
HOP-92 NSCLC = test system: HOP-92 NSCLC
HS 578T breast = test system: HS 578T breast
HT29 colon = test system: HT29 colon
K-562 leukemia = test system: K-562 leukemia
KM12 colon = test system: KM12 colon
LOX IMVI melanoma = test system: LOX IMVI melanoma
M14 melanoma = test system: M14 melanoma
MALME-3M melanoma = test system: MALME-3M melanoma
MCF7 breast = test system: MCF7 breast
MDA-MB-231 breast = test system: MDA-MB-231 breast
MDA-MB-435 = test system: MDA-MB-435
MDA-N = test system: MDA-N
MOLT-4 leukemia = test system: MOLT-4 leukemia
NCI-H226 lung = test system: NCI-H226 lung
NCI-H23 lung = test system: NCI-H23 lung
NCI-H522 lung = test system: NCI-H522 lung
NCI/ADR-RES ovarian = test system: NCI/ADR-RES ovarian
OVCAR-3 ovarian = test system: OVCAR-3 ovarian
OVCAR-4 ovarian = test system: OVCAR-4 ovarian
OVCAR-5 ovarian = test system: OVCAR-5 ovarian
OVCAR-8 ovarian = test system: OVCAR-8 ovarian
PC-3 prostate = test system: PC-3 prostate
RPMI-8226 leukemia = test system: RPMI-8226 leukemia
RXF 393 renal = test system: RXF 393 renal
SF-268 CNS = test system: SF-268 CNS
SF-295 CNS = test system: SF-295 CNS
SK-MEL-2 melanoma = test system: SK-MEL-2 melanoma
SK-MEL-28 melanoma = test system: SK-MEL-28 melanoma
SK-MEL-5 melanoma = test system: SK-MEL-5 melanoma
SK-OV-3 ovarian = test system: SK-OV-3 ovarian
SN12C renal = test system: SN12C renal
SNB-19 CNS = test system: SNB-19 CNS
SNB-75 CNS = test system: SNB-75 CNS
SR leukemia = test system: SR leukemia
SW-620 colon = test system: SW-620 colon
T-47D breast = test system: T-47D breast
TK-10 renal = test system: TK-10 renal
U251 CNS = test system: U251 CNS
UACC-257 melanoma = test system: UACC-257 melanoma
UACC-62 melanoma = test system: UACC-62 melanoma
UO-31 renal = test system: UO-31 renal
CCRF-CEM leukemia = test system: CCRF-CEM leukemia
IGROV1 ovarian = test system: IGROV1 ovarian
NCI-H460 lung = test system: NCI-H460 lung
SF-539 CNS = test system: SF-539 CNS

Structure (SMILES): CC(=O)Oc1ccc2c3c1[C@H]1O[C@H]1c1cccc(c1-3)[C@@H]1O[C@H]21
- TGI (786-0 renal): 6.01 µM
- TGI (A498 renal): 33.8 µM
- TGI (A549 NSCLC): 22.1 µM
- TGI (ACHN renal): 37.4 µM
- TGI (BT-549 breast): 23.6 µM
- TGI (CAKI-1 renal): 7.96 µM
- TGI (COLO 205 colon): 27.4 µM
- TGI (DU-145 prostate): 20.8 µM
- TGI (EKVX NSCLC): 36.9 µM
- TGI (HCC-2998 colon): 25.3 µM
- TGI (HCT-116 colon): 34.4 µM
- TGI (HCT-15 colon): 13.1 µM
- TGI (HL-60(TB) leukemia): 6.61 µM
- TGI (HOP-62 NSCLC): 17.5 µM
- TGI (HOP-92 NSCLC): 24.9 µM
- TGI (HS 578T breast): 14.4 µM
- TGI (HT29 colon): 47.4 µM
- TGI (K-562 leukemia): > 100 µM
- TGI (KM12 colon): 27.5 µM
- TGI (LOX IMVI melanoma): 4.13 µM
- TGI (M14 melanoma): 10.2 µM
- TGI (MALME-3M melanoma): 5.76 µM
- TGI (MCF7 breast): > 100 µM
- TGI (MDA-MB-231 breast): 31.5 µM
- TGI (MDA-MB-435): 4.26 µM
- TGI (MDA-N): 20.9 µM
- TGI (MOLT-4 leukemia): > 100 µM
- TGI (NCI-H226 lung): 56.8 µM
- TGI (NCI-H23 lung): 12.7 µM
- TGI (NCI-H522 lung): 4.51 µM
- TGI (NCI/ADR-RES ovarian): 43.5 µM
- TGI (OVCAR-3 ovarian): 11.8 µM
- TGI (OVCAR-4 ovarian): 18.6 µM
- TGI (OVCAR-5 ovarian): 31.8 µM
- TGI (OVCAR-8 ovarian): 9.88 µM
- TGI (PC-3 prostate): 32.9 µM
- TGI (RPMI-8226 leukemia): > 100 µM
- TGI (RXF 393 renal): 6.84 µM
- TGI (SF-268 CNS): 14.4 µM
- TGI (SF-295 CNS): 25 µM
- TGI (SK-MEL-2 melanoma): 39.6 µM
- TGI (SK-MEL-28 melanoma): 27.7 µM
- TGI (SK-MEL-5 melanoma): 12.1 µM
- TGI (SK-OV-3 ovarian): 27.9 µM
- TGI (SN12C renal): 7.55 µM
- TGI (SNB-19 CNS): 30.5 µM
- TGI (SNB-75 CNS): 15.7 µM
- TGI (SR leukemia): > 100 µM
- TGI (SW-620 colon): 4.59 µM
- TGI (T-47D breast): 6.79 µM
- TGI (TK-10 renal): 31.8 µM
- TGI (U251 CNS): 18.9 µM
- TGI (UACC-257 melanoma): 32.9 µM
- TGI (UACC-62 melanoma): 20.8 µM
- TGI (UO-31 renal): 8.94 µM

Structure (SMILES): Cc1ccc(/C(O)=C/c2nc3ccccc3[nH]c2=O)cc1
- TGI (786-0 renal): 5.61 µM
- TGI (A498 renal): 58.2 µM
- TGI (A549 NSCLC): 19.6 µM
- TGI (ACHN renal): 14.5 µM
- TGI (BT-549 breast): 95.3 µM
- TGI (CAKI-1 renal): 14.2 µM
- TGI (CCRF-CEM leukemia): > 100 µM
- TGI (COLO 205 colon): > 100 µM
- TGI (DU-145 prostate): 21.5 µM
- TGI (EKVX NSCLC): 21.1 µM
- TGI (HCC-2998 colon): > 100 µM
- TGI (HCT-116 colon): 5.7 µM
- TGI (HCT-15 colon): > 100 µM
- TGI (HL-60(TB) leukemia): > 100 µM
- TGI (HOP-62 NSCLC): 5.16 µM
- TGI (HOP-92 NSCLC): 27.1 µM
- TGI (HS 578T breast): 6.79 µM
- TGI (HT29 colon): 67.2 µM
- TGI (IGROV1 ovarian): 5.92 µM
- TGI (K-562 leukemia): > 100 µM
- TGI (KM12 colon): > 100 µM
- TGI (LOX IMVI melanoma): 52.1 µM
- TGI (M14 melanoma): 73.4 µM
- TGI (MALME-3M melanoma): 13.4 µM
- TGI (MCF7 breast): > 100 µM
- TGI (MDA-MB-231 breast): 15.2 µM
- TGI (MDA-MB-435): 31.8 µM
- TGI (MDA-N): > 100 µM
- TGI (MOLT-4 leukemia): > 100 µM
- TGI (NCI-H226 lung): 6.4 µM
- TGI (NCI-H23 lung): 33.4 µM
- TGI (NCI-H460 lung): 37.3 µM
- TGI (NCI-H522 lung): 6.59 µM
- TGI (NCI/ADR-RES ovarian): 23 µM
- TGI (OVCAR-3 ovarian): 11.2 µM
- TGI (OVCAR-4 ovarian): 4.04 µM
- TGI (OVCAR-5 ovarian): > 100 µM
- TGI (OVCAR-8 ovarian): 12.2 µM
- TGI (PC-3 prostate): > 100 µM
- TGI (RPMI-8226 leukemia): 47.5 µM
- TGI (RXF 393 renal): 7.1 µM
- TGI (SF-268 CNS): 24 µM
- TGI (SF-295 CNS): 14.6 µM
- TGI (SF-539 CNS): 27.6 µM
- TGI (SK-MEL-2 melanoma): 17.6 µM
- TGI (SK-MEL-28 melanoma): 23.2 µM
- TGI (SK-MEL-5 melanoma): > 100 µM
- TGI (SK-OV-3 ovarian): 5.64 µM
- TGI (SN12C renal): 34 µM
- TGI (SNB-19 CNS): 27.8 µM
- TGI (SR leukemia): 72.9 µM
- TGI (T-47D breast): 16.3 µM
- TGI (TK-10 renal): 11.1 µM
- TGI (U251 CNS): 22.6 µM
- TGI (UACC-257 melanoma): 87.4 µM
- TGI (UACC-62 melanoma): 9.38 µM
- TGI (UO-31 renal): 21 µM

Structure (SMILES): COc1ccc2c(c1)CCc1cc(C(N)=O)c3nnnn3c1-2
- TGI (786-0 renal): > 100 µM
- TGI (A498 renal): 62.2 µM
- TGI (A549 NSCLC): > 100 µM
- TGI (ACHN renal): > 100 µM
- TGI (BT-549 breast): > 100 µM
- TGI (CAKI-1 renal): > 100 µM
- TGI (CCRF-CEM leukemia): > 91.2 µM
- TGI (COLO 205 colon): > 100 µM
- TGI (DU-145 prostate): > 100 µM
- TGI (HCC-2998 colon): > 100 µM
- TGI (HCT-116 colon): > 100 µM
- TGI (HCT-15 colon): > 100 µM
- TGI (HL-60(TB) leukemia): > 100 µM
- TGI (HOP-62 NSCLC): > 100 µM
- TGI (HOP-92 NSCLC): > 100 µM
- TGI (HS 578T breast): > 100 µM
- TGI (HT29 colon): > 100 µM
- TGI (IGROV1 ovarian): > 100 µM
- TGI (K-562 leukemia): > 100 µM
- TGI (KM12 colon): > 100 µM
- TGI (LOX IMVI melanoma): > 100 µM
- TGI (M14 melanoma): > 100 µM
- TGI (MALME-3M melanoma): > 100 µM
- TGI (MCF7 breast): > 100 µM
- TGI (MDA-MB-231 breast): > 100 µM
- TGI (MDA-MB-435): > 100 µM
- TGI (MDA-N): > 100 µM
- TGI (MOLT-4 leukemia): > 76.9 µM
- TGI (NCI-H226 lung): > 100 µM
- TGI (NCI-H23 lung): > 100 µM
- TGI (NCI-H460 lung): 50.9 µM
- TGI (NCI-H522 lung): > 100 µM
- TGI (NCI/ADR-RES ovarian): > 100 µM
- TGI (OVCAR-3 ovarian): > 100 µM
- TGI (OVCAR-4 ovarian): > 100 µM
- TGI (OVCAR-5 ovarian): > 100 µM
- TGI (OVCAR-8 ovarian): > 100 µM
- TGI (PC-3 prostate): > 100 µM
- TGI (RPMI-8226 leukemia): > 100 µM
- TGI (RXF 393 renal): 63 µM
- TGI (SF-268 CNS): 29.3 µM
- TGI (SF-295 CNS): 98.5 µM
- TGI (SF-539 CNS): > 100 µM
- TGI (SK-MEL-2 melanoma): > 75.5 µM
- TGI (SK-MEL-28 melanoma): > 100 µM
- TGI (SK-MEL-5 melanoma): > 100 µM
- TGI (SK-OV-3 ovarian): > 100 µM
- TGI (SN12C renal): > 100 µM
- TGI (SNB-19 CNS): > 100 µM
- TGI (SR leukemia): > 100 µM
- TGI (SW-620 colon): > 100 µM
- TGI (T-47D breast): > 100 µM
- TGI (TK-10 renal): > 100 µM
- TGI (U251 CNS): > 67.4 µM
- TGI (UACC-257 melanoma): > 100 µM
- TGI (UACC-62 melanoma): 23.9 µM
